Marks after values point to notes of the source that are not given here.

The first assay concerns mice. Briefly: locomotor activity, 1-h observation protocol. It is filed as in vivo. The following applies: Mus musculus, 0.5 h, read-out: Locomotor Activity 1-Hour % Peak Cocaine.
Turning to `CC(C)NC(C)C(=O)c1cccc(Cl)c1` (stereo not shown) [Compound 2w, 2-(N-Isopropylamino)-3′-chloropropiophenone], the Emax stood at 84%.
As to `Cc1ccc(C(=O)C(C)NC(C)(C)C)cc1` (stereo not shown) [Compound 2h, 2-(N-tert-Butylamino)-4′-methylpropiophenone], the Emax was 65%.
As for `CC(NC(C)(C)C)C(=O)c1ccc(F)c(F)c1` (stereo not shown) [Compound 2i, 2-tert-Butylamino-3′,4′-difluoropropiophenone], the Emax stood at 58%.
The same measure, in the same setting: the figure for `COC(=O)[C@H]1[C@@H](OC(=O)c2ccccc2)C[C@@H]2CC[C@H]1N2C` [cocaine, reference compound] is 100%.

Staying with this assay, now noted: Mus musculus; dose to produce 50% of the compound's maximal effect; 1-h.
For `Cc1ccc(C(=O)C(C)NC(C)(C)C)cc1` (stereo not shown) [Compound 2h, 2-(N-tert-Butylamino)-4′-methylpropiophenone], the 50% effect level (ED50) was put at a dose of 8.77 mg/kg.
In the case of `CC(NC(C)(C)C)C(=O)c1ccc(F)c(F)c1` (stereo not shown) [Compound 2i, 2-tert-Butylamino-3′,4′-difluoropropiophenone], the ED50 (in general, the midpoint of the dose-response relation) worked out at 54.6 mg/kg.
Molecule `COC(=O)[C@H]1[C@@H](OC(=O)c2ccccc2)C[C@@H]2CC[C@H]1N2C` [cocaine, reference compound] had an ED50 of 8.5 to 11 mg/kg.

The same assay, now with this note: dose to produce 50% of the compound's maximal effect; 1-h.
For the molecule `CC(NC(C)(C)C)C(=O)c1ccc(Cl)cc1` (stereo not shown) [Compound 2f, 2-(N-tert-Butylamino)-4′-chloropropiophenone], the “Locomotor Activity 1-Hour ED50” value is “NE^f”.
On the same count and under the same terms, the entry for `CC(NC(C)(C)C)C(=O)c1cc(Cl)cc(Cl)c1` (stereo not shown) [Compound 2n, 2-(tert-Butylamino)-3′,5′-dichloropropiophenone] is “NE^f”; for `COC(=O)[C@H]1[C@@H](OC(=O)c2ccccc2)C[C@@H]2CC[C@H]1N2C` [cocaine, reference compound] it is 8.5-11^e mg/kg.

In another assay the test system is rats. Briefly: cocaine discrimination time-course study, oral administration. The conditions noted are these: Rattus norvegicus, po, 0.75 h.
As to `CC(NC(C)(C)C)C(=O)c1cccc(Cl)c1` (racemic) [Compound 2a, (±)-2-tert-butylamino-3′-chloropropiophenone, reference compound], the 50% effective dose (ED50) is 23.2 mg/kg.

Still in this assay, the particulars now being: Rattus norvegicus, po, 0.75 h, read-out: ED50 for drug-appropriate responding.
Consider `CC(NC(C)(C)C)C(=O)c1cccc(Cl)c1` (racemic) [Compound 2a, (±)-2-tert-butylamino-3′-chloropropiophenone, reference compound], for which the 50% effective dose (ED50) is 23.2 mg/kg.

Staying with this assay, now noted: p.o., 45 min, 50 mg/kg.
Consider `CC(NC(C)(C)C)C(=O)c1cccc(Cl)c1` (racemic) [Compound 2a, (±)-2-tert-butylamino-3′-chloropropiophenone, reference compound], for which the generalization to cocaine entry is “full generalization”.

The assay is the same for the next values; noted with them: p.o., 90 min, 50 mg/kg.
`CC(NC(C)(C)C)C(=O)c1cccc(Cl)c1` (racemic) [Compound 2a, (±)-2-tert-butylamino-3′-chloropropiophenone, reference compound]: the generalization to cocaine entry is “partial generalization”.

For the next assay, the target named is T1, (h)DAT (Homo sapiens, UniProt Q01959).
T1 construct: expressed in transfected cells
T1 sequence (Q01959 whole entry): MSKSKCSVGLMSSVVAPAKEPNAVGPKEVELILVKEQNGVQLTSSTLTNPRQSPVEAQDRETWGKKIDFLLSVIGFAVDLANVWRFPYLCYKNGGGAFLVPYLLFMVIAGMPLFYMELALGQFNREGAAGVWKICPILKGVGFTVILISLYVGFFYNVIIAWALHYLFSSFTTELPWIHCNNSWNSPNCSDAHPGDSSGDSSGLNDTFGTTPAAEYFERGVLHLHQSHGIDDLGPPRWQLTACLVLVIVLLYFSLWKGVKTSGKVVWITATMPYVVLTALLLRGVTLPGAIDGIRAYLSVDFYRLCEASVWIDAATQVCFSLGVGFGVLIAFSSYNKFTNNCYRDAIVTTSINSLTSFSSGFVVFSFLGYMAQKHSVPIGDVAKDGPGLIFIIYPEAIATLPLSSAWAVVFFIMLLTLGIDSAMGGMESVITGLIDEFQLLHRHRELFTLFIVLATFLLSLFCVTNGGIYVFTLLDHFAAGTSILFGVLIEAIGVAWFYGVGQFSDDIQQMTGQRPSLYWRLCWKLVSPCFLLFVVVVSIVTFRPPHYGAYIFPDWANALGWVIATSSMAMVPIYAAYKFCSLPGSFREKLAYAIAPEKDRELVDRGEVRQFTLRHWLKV
In words: competition binding with [125I]RTI-55 at (h)DAT stably expressed in HEK293 cells. The following applies: mean ± standard error of three independent experiments.
Regarding `CC(C)NC(C)C(=O)c1cccc(Cl)c1` (stereo not shown) [Compound 2w, 2-(N-Isopropylamino)-3′-chloropropiophenone], the inhibition constant (Ki) (commonly a measure of affinity in units of concentration, obtained from inhibition or displacement) was 3980 nM. This counts as single-digit micromolar.
Same read-out and setting: the figure for `CC(NC(C)(C)C)C(=O)c1ccc(Cl)cc1` (stereo not shown) [Compound 2f, 2-(N-tert-Butylamino)-4′-chloropropiophenone] is 2200 nM.

The subject of the next assay is mice. Briefly: locomotor activity, 8-h time course protocol. Format: in vivo. The following applies: 1-h and 8-h tests compared.
As to `CC(C)NC(C)C(=O)c1cccc(Cl)c1` (stereo not shown) [Compound 2w, 2-(N-Isopropylamino)-3′-chloropropiophenone], the “locomotor stimulant activity across the 1-h and 8-h protocols, in words” value is on record as “activity similar to cocaine in the 1-h protocol but weakened significantly in the 8-h time-course study”.
Still for that read-out and setting: next, `Cc1ccc(C(=O)C(C)NC(C)(C)C)cc1` (stereo not shown) [Compound 2h, 2-(N-tert-Butylamino)-4′-methylpropiophenone]: “weak stimulants in both tests”.

The same assay, now with this note: Mus musculus, 8 h, read-out: Locomotor Activity 8-Hour ED50.
Turning to `CC(NC(C)(C)C)C(=O)c1cccc(Cl)c1` (racemic) [Compound 2a, (±)-2-tert-butylamino-3′-chloropropiophenone, reference compound], the ED50 amounted to 6.5 mg/kg.
Same read-out and setting: next, `CC(C)NC(C)C(=O)c1cccc(Cl)c1` (stereo not shown) [Compound 2w, 2-(N-Isopropylamino)-3′-chloropropiophenone]: 7.4 mg/kg.
Same read-out and setting: the figure for `Cc1ccc(C(=O)C(C)NC(C)(C)C)cc1` (stereo not shown) [Compound 2h, 2-(N-tert-Butylamino)-4′-methylpropiophenone] is 4.4 mg/kg.

The assay is the same for the next values; noted with them: Mus musculus, read-out: Locomotor Activity 8-Hour % Peak Cocaine, percent of cocaine's maximal effect, 30 min period of maximum stimulation.
Consider `CC(NC(C)(C)C)C(=O)c1cccc(Cl)c1` (racemic) [Compound 2a, (±)-2-tert-butylamino-3′-chloropropiophenone, reference compound], for which the Emax was > 84%.
On to `CC(C)NC(C)C(=O)c1cccc(Cl)c1` (stereo not shown) [Compound 2w, 2-(N-Isopropylamino)-3′-chloropropiophenone], for which the Emax worked out at 65%.
On the same count and under the same terms, the figure for `Cc1ccc(C(=O)C(C)NC(C)(C)C)cc1` (stereo not shown) [Compound 2h, 2-(N-tert-Butylamino)-4′-methylpropiophenone] is 52%.
Still for that read-out and setting: next, `COC(=O)[C@H]1[C@@H](OC(=O)c2ccccc2)C[C@@H]2CC[C@H]1N2C` [cocaine, reference compound]: 100%.

The assay is the same for the next values; noted with them: duration of locomotor activity.
For `CC(NC(C)(C)C)C(=O)c1cccc(Cl)c1` (racemic) [Compound 2a, (±)-2-tert-butylamino-3′-chloropropiophenone, reference compound], the “Locomotor Activity 8-Hour Time, min Period, length” value was 130 to 270 min.
On the same count and under the same terms, next, `CC(C)NC(C)C(=O)c1cccc(Cl)c1` (stereo not shown) [Compound 2w, 2-(N-Isopropylamino)-3′-chloropropiophenone]: 50 to 160 min; `Cc1ccc(C(=O)C(C)NC(C)(C)C)cc1` (stereo not shown) [Compound 2h, 2-(N-tert-Butylamino)-4′-methylpropiophenone]: 60 to 140 min.
Still for that read-out and setting: the figure for `COC(=O)[C@H]1[C@@H](OC(=O)c2ccccc2)C[C@@H]2CC[C@H]1N2C` [cocaine, reference compound] is 40 to 100 min.

Still in this assay, the particulars now being: time period of maximum effect.
Consider `CC(NC(C)(C)C)C(=O)c1cccc(Cl)c1` (racemic) [Compound 2a, (±)-2-tert-butylamino-3′-chloropropiophenone, reference compound], for which the “Locomotor Activity 8-Hour Time, min Period, max” value was 0 to 30 min.
For the molecule `CC(C)NC(C)C(=O)c1cccc(Cl)c1` (stereo not shown) [Compound 2w, 2-(N-Isopropylamino)-3′-chloropropiophenone], the “Locomotor Activity 8-Hour Time, min Period, max” value fell in the range of 20 to 50 min.
Same read-out and setting: next, `Cc1ccc(C(=O)C(C)NC(C)(C)C)cc1` (stereo not shown) [Compound 2h, 2-(N-tert-Butylamino)-4′-methylpropiophenone]: 30 to 60 min; `CC(NC(C)(C)C)C(=O)c1ccc(Cl)cc1` (stereo not shown) [Compound 2f, 2-(N-tert-Butylamino)-4′-chloropropiophenone]: 180 to 210 min.
The same measure, in the same setting: next, `COC(=O)[C@H]1[C@@H](OC(=O)c2ccccc2)C[C@@H]2CC[C@H]1N2C` [cocaine, reference compound]: 0 to 30 min.

The test system of a further assay is rats. In words: cocaine discrimination (2-lever operant), i.p. administration. The conditions noted are these: Rattus norvegicus, ip, read-out: % cocaine lever responding.
On to `CC(NC(C)(C)C)C(=O)c1cccc(Cl)c1` (racemic) [Compound 2a, (±)-2-tert-butylamino-3′-chloropropiophenone, reference compound], for which the responders at 5 mg/kg stood at 0%, the responders at 10 mg/kg amounted to 67% and the responders at 25 mg/kg worked out at 66%.
Take `Cc1ccc(C(=O)C(C)NC(C)(C)C)cc1` (stereo not shown) [Compound 2h, 2-(N-tert-Butylamino)-4′-methylpropiophenone]: the responders at 5 mg/kg was determined as 0%, the responders at 10 mg/kg amounted to 0%, the responders at 25 mg/kg worked out at 17% and the responders at 50 mg/kg is 67%. In addition, the responders at 100 mg/kg was 10%.
Regarding `CC(NC(C)(C)C)C(=O)c1ccc(F)c(F)c1` (stereo not shown) [Compound 2i, 2-tert-Butylamino-3′,4′-difluoropropiophenone], the responders at 10 mg/kg worked out at 2%, the responders at 25 mg/kg stood at 17% and the responders at 50 mg/kg was 47%.
Consider `CC(NC(C)(C)C)C(=O)c1ccc(Cl)cc1` (stereo not shown) [Compound 2f, 2-(N-tert-Butylamino)-4′-chloropropiophenone], for which the responders at 5 mg/kg is 0%, the responders at 10 mg/kg was determined as 33%, the responders at 25 mg/kg turned out to be 17% and the responders at 50 mg/kg turned out to be 0%. Further, the responders at 100 mg/kg stood at 34%.

Staying with this assay, now noted: Rattus norvegicus, ip, read-out: Full Generalization ED50.
Consider `Cc1ccc(C(=O)C(C)NC(C)(C)C)cc1` (stereo not shown) [Compound 2h, 2-(N-tert-Butylamino)-4′-methylpropiophenone], for which the ED50 amounted to 36.7 mg/kg.

The same assay, now with this note: i.p.
Take `CC(NC(C)(C)C)C(=O)c1cccc(Cl)c1` (racemic) [Compound 2a, (±)-2-tert-butylamino-3′-chloropropiophenone, reference compound]: the “generalization to the cocaine cue, in words” value is “substituted only partially”.

Still in this assay, the particulars now being: i.p., 10 mg/kg.
Molecule `CC(NC(C)(C)C)C(=O)c1cccc(Cl)c1` (racemic) [Compound 2a, (±)-2-tert-butylamino-3′-chloropropiophenone, reference compound] came in with a cocaine-appropriate responding of 67%.

Still in this assay, the particulars now being: i.p., dose range given in the value.
For the molecule `CC(NC(C)(C)C)C(=O)c1cccc(Cl)c1` (racemic) [Compound 2a, (±)-2-tert-butylamino-3′-chloropropiophenone, reference compound], the “response rate, in words” value was “increased relative to vehicle control following 5-25 mg/kg”.

The target in the next assay is T1, (h)DAT. Briefly: block of [3H]dopamine reuptake in HEK-(h)DAT cells. Format: cell-based. The conditions noted are these: [3H]DA; read-out: IC50 for DA uptake inhibition.
On to `CC(C)NC(C)C(=O)c1cccc(Cl)c1` (stereo not shown) [Compound 2w, 2-(N-Isopropylamino)-3′-chloropropiophenone], for which the concentration for half-maximal inhibition (IC50) – broadly, the midpoint of a concentration-inhibition curve – is 2000 nM.

The assay is the same for the next values; noted with them: mean ± standard error of three independent experiments; read-out: Uptake, IC50 [3H]DA.
On to `CC(NC(C)(C)C)C(=O)c1ccc(Cl)cc1` (stereo not shown) [Compound 2f, 2-(N-tert-Butylamino)-4′-chloropropiophenone], for which the IC50 came out at 2320 nM.

The same assay, now with this note: relative to bupropion.
For the molecule `CC(C)NC(C)C(=O)c1cccc(Cl)c1` (stereo not shown) [Compound 2w, 2-(N-Isopropylamino)-3′-chloropropiophenone], the “times less potent than bupropion as DA uptake inhibitor” value is 2 times.

Still in this assay, the particulars now being: relative to cocaine.
For `CC(NC(C)(C)C)C(=O)c1cccc(Cl)c1` (racemic) [Compound 2a, (±)-2-tert-butylamino-3′-chloropropiophenone, reference compound], the “times less potent inhibitor of DA uptake than cocaine” value turned out to be 3.5 times.

The values above are taken from US10919841B2, “Monoamine reuptake inhibitors” (Research Triangle Institute, priority 2009, dated 2021).
